# Test results reported in a flash point compilation (Sun et al. 2020).
row,Compound,flash point [°C]
1,CCCCCC#N [hexanenitrile],47
2,CC(C)(C)c1ccccc1O [2-tert-butylphenol],102
3,C=CCI [3-iodo-1-propene],16
4,CC(C)CCC(=O)O [4-methylpentanoicacid],97
5,CCc1ccc(F)cc1 [1-ethyl-4-fluorobenzene],30
6,CCC(C)Cc1ccccc1 (centres undefined) [1-phenyl-2-methylbutane],64
7,CC(C)CCl [1-chloro-2-methylpropane],-17
8,CC#CCCCCCCC [2-decyne],53
9,CC(C)NC(C)C [diisopropylamine],-7
10,Cc1cccc(I)c1 [1-iodo-3-methylbenzene],83
11,CCCCCC=O [hexanal],25
12,C=CCSCC=C [diallylsulfide],23
13,CCCCCCCCS [1-octanethiol],68
14,CCOC(=O)CC [ethylpropanoate],12
15,CCCCCCCCCCl [1-chlorononane],74
16,COC1CCCCC1=O (centres undefined) [2-methoxycyclohexanone],69
17,CCCC(C)Br (centres undefined) [2-bromopentane],21
18,CCCCCCCCCCOC=O [decylformate],100
19,CCCO [1-propanol],23
20,CC(C)(C)C1CCCCC1=O (centres undefined) [2-tert-butylcyclohexanone],72
21,SC1CCCCC1 [cyclohexanethiol],41
22,C=CC(=O)OCC [ethylacrylate],8

row,Compound,flash point [°C]
1,CCCCN [butylamine],-7
2,CCCCCC(=O)CCCCC [6-undecanone],88
3,"CCC(C)C(C)(C)CC (centres undefined) [3,3,4-trimethylhexane]",15
4,CCCCC(C)Br (centres undefined) [2-bromohexane],40
5,CC(C)C1CCCCC1=O (centres undefined) [2-isopropylcyclohexanone],65
6,OCCCCl [3-chloro-1-propanol],73
7,CC(=O)OCCc1ccccc1 [2-phenylethylacetate],102
8,CCCCCCCCCCCCO [1-dodecanol],127
9,C=CCCCCCCCCO [9-decen-1-ol],119
10,CCCCS [1-butanethiol],2
11,CCCCCCCCl [1-chloroheptane],41
12,C=CC#N [acrylonitrile],-5
13,C1CCOC1 [tetrahydrofuran],-21
14,CCI [iodoethane],-5
15,C=CCOCC [allylethylether],-20
16,Cc1cccc(N)c1 [3-methylaniline],86
17,"CC(C)c1cccc(C(C)C)c1N [2,6-diisopropylaniline]",123
18,CCCCOC(=O)CCC [butylbutanoate],49
19,OC1CCCCCC1 [cycloheptanol],71
20,CC1CCCC1=O (centres undefined) [2-methylcyclopentanone],26
21,Cc1ccccc1I [2-iodotoluene],90
22,CSSC [dimethyldisulfide],10

row,Compound,flash point [°C]
1,CCCCCCCO [1-heptanol],70
2,CC[N+](=O)[O-] [nitroethane],28
3,Cc1cccc(O)c1 [m-cresol],86
4,"CCC(C)C(C)(C)C(C)C (centres undefined) [2,3,3,4-tetramethylhexane]",31
5,C=C(C)CCl [3-chloro-2-methyl-1-propene],-12
6,CCCCCCCC#N [octanenitrile],74
7,CCCCCC(=O)CCC [4-nonanone],62
8,CCCBr [1-bromopropane],-4
9,CCC1CCCC1 [ethylcyclopentane],-4
10,CCCCCC[N+](=O)[O-] [1-nitrohexane],72
11,CCc1ccsc1 [3-ethylthiophene],23
12,CCCC(C)C(=O)O (centres undefined) [2-methylpentanoicacid],91
13,CCCCCCOC(C)=O [hexylacetate],55
14,CC(=O)OC(C)=O [aceticanhydride],49
15,C=CCCCCCCC [1-nonene],25
16,C=COC(=O)CCC [vinylbutanoate],20
17,CCCCCCCCI [1-iodooctane],95
18,Cn1cccc1 [1-methylpyrrole],15
19,C=C(C)C(=O)OCC(C)C [isobutylmethacrylate],41
20,CCCCC(CC)CO (centres undefined) [2-ethyl-1-hexanol],74
